These results are taken from US20090291945A1, “CYSTEINE PROTEASE INHIBITORS” (Teijin Pharma Limited, priority 2008, published 2009).

The experiment has as its target T1, cathepsin K (Homo sapiens, UniProt P43235).
T1 construct: the active enzyme was obtained as the enzyme fraction by using detergent containing lysis buffer; made in house; host or cells: HEK293T (GenHunter Corporation), transient expression; detergent lysate used as enzyme fraction
T1 sequence (P43235 115-329): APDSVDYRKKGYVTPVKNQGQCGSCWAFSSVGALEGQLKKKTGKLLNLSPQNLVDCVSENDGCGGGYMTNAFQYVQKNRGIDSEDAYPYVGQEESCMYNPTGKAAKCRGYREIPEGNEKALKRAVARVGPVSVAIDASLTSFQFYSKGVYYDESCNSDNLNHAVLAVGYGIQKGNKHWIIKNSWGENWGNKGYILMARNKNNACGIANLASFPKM
The experiment in a line: Cathepsin K inhibitory activity (fluorescent substrate Z-Leu-Arg-MCA). The experiment is classed as biochemical. The note with it: enzyme expressed in HEK293T; 15 min preincubation, 30 min reaction at room temperature, pH 5.5; read-out: Activity Intensity (cathepsin K inhibitory activity, pIC50 class) (converted). The protocol: Cathepsin K inhibitory activities of the compounds synthesized according to the methods of the above examples were measured.
Cathepsin K used for evaluation of inhibitory activity was transiently expressed in an animal cell HEK293T (made by GenHunter Corporation) and the active enzyme was obtained as the enzyme fraction by using detergent containing lysis buffer.
The enzyme solution A was prepared at 2.1 times final concentration by diluting the enzyme fraction with assay buffer (50 mM sodium acetate, 50 mM sodium chloride, 2 mM DTT, pH 5.5). The test compound solutions B were prepared at 50 times final target concentrations by dimethylsulfoxide (DMSO). As a substrate solution C, a solution of a fluorescent substrate, benzyloxycarbonyl-L-leucyl-L-arginyl-4-methyl-coumaryl-7-amide (Z-Leu-Arg-MCA (Peptide Institute Inc.), was prepared at 10 μM by an assay buffer.
To the enzyme solution A (38.4 μL) were added the test compound solutions B (1.6 μL) and mixed individually. The mixtures were incubated at room temperature for 15 minutes. To the incubated solutions were added the substrate solution C (40 μL) and the mixtures were reacted at room temperature for 30 minutes respectively. The fluorescence intensities of the enzyme reaction solutions were measured at excitation wavelength of 355 nm and measurement wavelength of 460 nm and the enzyme activities were calculated from these fluorescence intensities caused by 7-amino-4-methylcoumarine released. The enzyme activity with using DMSO instead of the test compound solution B was taken as 100% and the inhibitory rates at each concentration of the test compound were calculated. The […] response curve was fitted to the plots. The 50% inhibitory concentration against cathepsin K was calculated from this curve.
Note that the symbols (+, ++, and +++) in this table represent the inhibitory activity values as below. Here, pIC50 is the value representing a negative logarithm of IC50, (−log10(IC50)). IC50 is a 50% inhibitory concentration.

For `CC[C@@H](CNc1ccc(OC(C)C(=O)OC)cc1OC)NC(=O)[C@H](CC(C)(C)F)N[C@@H](c1ccccc1)C(F)(F)F` (stereo partly drawn) [Compound 21, Methyl 2-{4-[((2S)-2-{(2S)-2-[((1S)-2,2,2-trifluoro-1-phenylethyl)amino]-4-fluoro-4-methylpentanoylamino}butyl)amino]-3-methoxyphenoxy}propanoate], the IC50 was 3.16 to 31.6 nM.

Regarding `CCOC(=O)c1ccnn1-c1ccc(NC[C@H](CC)NC(=O)[C@H](CC(C)C)N[C@@H](c2ccc(OC)nc2)C(F)(F)F)cc1` [Compound 115], the IC50 is 31.6 to 10000 nM.

For `CC[C@@H](CNc1ccc(N2CCOCC2)cc1)NC(=O)C1(NC(c2ccccc2)C(F)(F)F)CCCCC1` (stereo partly drawn) [Compound 11, N-((1S)-1-{[(4-morpholin-1-ylphenyl)amino]methyl}propyl) {[(2,2,2-trifluoro-1-phenylethyl)amino]cyclohexyl}carboxamide], the IC50 is 3.16 to 31.6 nM.

Regarding `CCOC(=O)C(F)(F)Oc1ccc(NC[C@H](CC)NC(=O)[C@H](CC(C)(C)F)N[C@@H](c2ccccc2)C(F)(F)F)c(OC)c1` [Compound 111], the IC50 is 31.6 to 10000 nM.

Regarding `CC[C@@H](CNc1ccc2c(c1)OCO2)NC(=O)[C@H](CC(C)C)N[C@@H](c1ccc(OC)cc1)C(F)(F)F` [Compound 100], the IC50 was 31.6 to 10000 nM.

With `CC[C@@H](CNc1ccc(N2CCCCC2)cc1)NC(=O)[C@H](CC(C)(C)F)N[C@@H](c1ccc(-c2ccc(S(C)(=O)=O)cc2)cc1)C(F)(F)F` [Compound 10, (2S)—N-((1S)-1-{[(4-piperidin-1-ylphenyl)amino]methyl}propyl)-2-[((1S)-2,2,2-trifluoro-1-{4-[4-(methylsulfonyl)phenyl]phenyl}ethyl)amino]-4-fluoro-4-methylpentanamide], the IC50 is at most 3.16 nM.

For the molecule `CC(C)C[C@H](N[C@@H](c1ccccc1)C(F)(F)F)C(=O)N[C@@H](CCCCNC(=O)OCc1ccccc1)CNc1ccc(N2CCOCC2)cc1` [Compound 102], the IC50 was at most 3.16 nM.

In the case of `CC[C@@H](CNc1ccc(OCCO)cc1OC)NC(=O)[C@H](CC(C)(C)F)N[C@@H](c1ccccc1)C(F)(F)F` [Compound 42], the IC50 is at most 3.16 nM.

`CC(C)C[C@H](N[C@@H](c1ccccc1)C(F)(F)F)C(=O)N[C@@H](CCCO)CNc1ccc(N2CCOCC2)cc1` [Compound 125]: the IC50 was 31.6 to 10000 nM.

Take `COc1ccc([C@H](N[C@@H](CC(C)C)C(=O)N[C@H](CNc2ccc(OC)cc2OC)CC(C)C)C(F)(F)F)cc1` [Compound 65]: the IC50 was at most 3.16 nM.

On to `CC[C@@H](CNc1ccc(OCCS(C)(=O)=O)cc1OC)NC(=O)[C@H](CC(C)C)N[C@@H](c1ccc(S(C)(=O)=O)cc1)C(F)(F)F` [Compound 40], for which the IC50 was 3.16 to 31.6 nM.

For `COc1ccc(NC[C@H](C)NC(=O)[C@H](CC(C)C)N[C@@H](c2ccccc2)C(F)(F)F)c(OC)c1` [Compound 70], the IC50 is at most 3.16 nM.

Turning to `CC[C@@H](CNc1ccc(OC)cc1OC)NC(=O)[C@H](CC(C)C)N[C@@H](c1ccc(OC)nc1)C(F)(F)F` [Compound 25], the IC50 was 3.16 to 31.6 nM.

As for `CC(C)C[C@H](N[C@@H](c1ccc(=O)[nH]c1)C(F)(F)F)C(=O)N[C@@H](C)CNc1ccc(N2CCOCC2)cc1` [Compound 72], the IC50 was at most 3.16 nM.

With `CC(C)C[C@H](N[C@@H](c1cccnc1)C(F)(F)F)C(=O)N[C@@H](C)CNc1ccc(N2CCOCC2)cc1` [Compound 74], the IC50 is at most 3.16 nM.

`CC[C@@H](CNc1ccc(OCCSC)cc1OC)NC(=O)[C@H](CC(C)(C)F)N[C@@H](c1ccc(Br)cc1)C(F)(F)F` [Compound 16, (2S)-2-{[(1S)-1-(4-bromophenyl)-2,2,2-trifluoroethyl]amino}-N-[(1S)-1-({[2-methoxy-4-(2-methylthioethoxy)phenyl]amino}methyl)propyl]-4-fluoro-4-methylpentanamide]: the IC50 is at most 3.16 nM.

As for `CC[C@@H](CNc1ccc(N2CCOCC2)cc1)NC(=O)[C@H](CC(C)C)N[C@@H](c1ccccn1)C(F)(F)F` [Compound 32], the IC50 is at most 3.16 nM.

Turning to `CC[C@H](N[C@@H](CC(C)C)C(=O)N[C@@H](CCS(C)(=O)=O)CNc1ccc(OC)cc1OC)C(F)(F)F` [Compound 116], the IC50 was 31.6 to 10000 nM.

As to `CC[C@@H](CNc1ccc(N2CCOCC2)cc1)NC(=O)[C@H](CC(C)C)N[C@@H](c1ccc(S(C)(=O)=O)cc1)C(F)(F)F` [Compound 24], the IC50 is at most 3.16 nM.

On to `CC[C@@H](CNc1ccc(OCCCCC(=O)O)cc1OC)NC(=O)[C@H](CC(C)C)N[C@@H](c1ccccc1)C(F)(F)F` [Compound 156], for which the IC50 is at most 3.16 nM.

As for `CC[C@@H](CNc1ccc(OC)cc1OC)NC(=O)[C@H](CC(C)C)N[C@@H](c1ccc(S(C)(=O)=O)cc1)C(F)(F)F` [Compound 23], the IC50 was at most 3.16 nM.

`CC[C@@H](CNc1ccc(OC(C)(C)C(=O)O)cc1OC)NC(=O)[C@H](CC(C)(C)F)N[C@@H](Cc1ccccc1)C(F)(F)F` [Compound 132, 2-(4-{[(2S)-2-((2S)-2-{[(1S)-2,2,2-trifluoro-1-benzylethyl]amino}-4-fluoro-4-methylpentanoylamino)butyl]amino}-3-methoxyphenoxy)-2-methylpropanoic acid]: the IC50 is 3.16 to 31.6 nM.

Regarding `CC[C@@H](CNc1ccc(OCC#N)cc1OC)NC(=O)[C@H](CC(C)(C)F)N[C@@H](c1ccccc1)C(F)(F)F` [Compound 161, (2S)—N-[(1S)-1-({[4-(cyanomethoxy)-2-methoxyphenyl]amino}methyl)propyl]-2-[((1S)-2,2,2-trifluoro-1-phenylethyl)amino]-4-fluoro-4-methylpentanamide], the IC50 was at most 3.16 nM.

Consider `CC[C@@H](CNc1ccc(OCC(N)=O)cc1OC)NC(=O)[C@H](CC(C)(C)F)N[C@@H](c1ccccc1)C(F)(F)F` [Compound 133, (2S)—N-[(1S)-1-({[4-(carbamoylmethoxy)-2-methoxyphenyl]amino}methyl)propyl]-2-[((1S)-2,2,2-trifluoro-1-phenylethyl)amino]-4-fluoro-4-methylpentanamide], for which the IC50 was at most 3.16 nM.

For `CCOC(=O)CCCCOc1ccc(NC[C@H](CC)NC(=O)[C@H](CC(C)C)N[C@@H](c2ccccc2)C(F)(F)F)c(OC)c1` [Compound 86], the IC50 was at most 3.16 nM.

Consider `CC[C@@H](CNc1ccc(N2CCC(C(=O)O)CC2)cc1)NC(=O)[C@H](CC(C)C)N[C@@H](c1ccc(OC)nc1)C(F)(F)F` [Compound 146], for which the IC50 was at most 3.16 nM.

Regarding `COc1ccc(NC[C@H](C)NC(=O)[C@H](CC(C)C)N[C@@H](c2cccnc2)C(F)(F)F)c(OC)c1` [Compound 78], the IC50 is 3.16 to 31.6 nM.

Turning to `CC[C@@H](CNc1ccc(OCCS(C)(=O)=O)cc1OC)NC(=O)[C@H](CC(C)C)N[C@@H](c1ccc(OC)nc1)C(F)(F)F` [Compound 38], the IC50 is 3.16 to 31.6 nM.

Regarding `CC[C@@H](CNc1ccc(OC)cc1OC)NC(=O)[C@H](CC(C)(C)F)N[C@@H](c1ccc(Br)cc1)C(F)(F)F` [Compound 6], the IC50 is at most 3.16 nM.

As for `CC[C@@H](CNc1ccc(OC)cc1)NC(=O)[C@H](CC(C)(C)F)N[C@@H](c1ccc(-c2ccc(S(C)(=O)=O)cc2)cc1)C(F)(F)F` [Compound 1, (2S)—N-((1S)-1-{[(4-methoxyphenyl)amino]methyl}propyl)-2-[((1S)-2,2,2-trifluoro-1-{4-[4-(methylsulfonyl)phenyl]phenyl}ethyl)amino]-4-fluoro-4-methylpentanamide], the IC50 was 3.16 to 31.6 nM.

Consider `CC[C@@H](CNc1ccc(OC)nc1OC)NC(=O)[C@H](CC(C)(C)F)N[C@@H](c1ccc(Br)cc1)C(F)(F)F` [Compound 19], for which the IC50 is 3.16 to 31.6 nM.

Take `CC[C@@H](CNc1ccc(OC)cc1OC)NC(=O)[C@@H](N[C@@H](c1ccccc1)C(F)(F)F)C1CCCCC1` [Compound 61]: the IC50 was 31.6 to 10000 nM.

Take `CC[C@@H](CNc1ccc(N2CCOCC2)cc1)NC(=O)[C@H](CC(C)C)N[C@@H](c1ccc(O)cc1)C(F)(F)F` [Compound 158, (2S)—N-((1S)-1-{[(4-morpholin-4-ylphenyl)amino]methyl}propyl)-2-{[(1S)-2,2,2-trifluoro-1-(4-hydroxyphenyl)ethyl]amino}-4-methylpentanamide]: the IC50 is at most 3.16 nM.

In the case of `CC[C@@H](CNc1c(OC)cccc1OC)NC(=O)[C@H](CC(C)(C)F)N[C@@H](c1ccc(Br)cc1)C(F)(F)F` [Compound 15], the IC50 is 3.16 to 31.6 nM.

On to `CC(C)C[C@H](N[C@@H](c1ccccc1)C(F)(F)F)C(=O)N[C@H](CNc1ccc(N2CCOCC2)cc1)CN(C)C` [Compound 106], for which the IC50 was at most 3.16 nM.

Regarding `COc1ccc(NC[C@H](CCS(C)(=O)=O)NC(=O)[C@H](CC(C)C)N[C@@H](c2ccccc2)C(F)(F)F)c(OC)c1` [Compound 80], the IC50 is 3.16 to 31.6 nM.
